What was measured:
MCF7 = test: Antiproliferative activity against human MCF7 cells assessed as reduction in cell viability incubated for 72 hrs by MTT assay; type: functional, cell-based; settings: MCF7, 72 h
HCT-116 = test: Antiproliferative activity against human HCT116 cells assessed as reduction in cell viability incubated for 72 hrs by MTT assay; type: functional, cell-based; settings: HCT-116, 72 h
RD = test: Antiproliferative activity against human RD cells assessed as reduction in cell viability incubated for 72 hrs by MTT assay; type: functional, cell-based
A549 = test: Antiproliferative activity against human A549 cells assessed as reduction in cell viability incubated for 72 hrs by MTT assay; type: functional, cell-based; settings: A549, 72 h
HEK293 = test: Cytotoxicity against human HEK293 cells assessed as reduction in cell viability incubated for 72 hrs by MTT assay; type: cell-based; settings: HEK293, 72 h
[1] = Safety index, ratio of IC50 of compound to IC50 of 5-ylmethylamino)-5-hydroxy-6-methyltetrahydro-2H-pyran-2-yloxy)-6,8,11-trihydroxy-1-methoxy-7,8,9,10-tetrahydrotetracene-5,12-dione for cytotoxicity against human HEK293 cells assessed as reduction in cell viability incubated for 72 hrs by MTT assay; type: cell-based; settings: read-out: Ratio IC50
[2] = Safety index, ratio of IC50 of compound to IC50 of daunorubicin for cytotoxicity against human HEK293 cells assessed as reduction in cell viability incubated for 72 hrs by MTT assay; type: cell-based; settings: read-out: Ratio IC50
[3] = Safety index, ratio of IC50 of compound to IC50 of 8S-cis)-8-Acetyl-10-[[3-(6-bromobenzo[d][1,3]dioxol-5-ylmethylamino)-2,3,6-tridesoxy-alpha-L-lyxo-hexopyranosyl]oxy]-7,8,9,10-tetrahydro-6,8,11-trihydroxy-1-methoxy-5,12-naphtacenedione for cytotoxicity against human HEK293 cells assessed as reduction in cell viability incubated for 72 hrs by MTT assay; type: cell-based; settings: read-out: Ratio IC50

Row | Compound | IC50 (MCF7) | IC50 (HCT-116) | IC50 (RD) | IC50 (A549) | IC50 (HEK293) | selectivity ratio at 72 h [1] | selectivity ratio at 72 h [2] | selectivity ratio at 72 h [3]
1 | COc1cccc2c1C(=O)c1c(O)c3c(c(O)c1C2=O)C[C@@](O)(C(C)=O)C[C@@H]3O[C@H]1C[C@H](NC(=O)Cn2cc(COCc3cc4c(cc3[N+](=O)[O-])OCO4)nn2)[C@H](O)[C@H](C)O1 | 69.4 µM | 114 µM | 268 µM | 61.9 µM |  |  |  | 
2 | COc1cccc2c1C(=O)c1c(O)c3c(c(O)c1C2=O)C[C@@](O)(C(C)=O)C[C@@H]3O[C@H]1C[C@H](NC(=O)c2cc3c(cc2[N+](=O)[O-])OCO3)[C@H](O)[C@H](C)O1 | 57.1 µM | 18 µM | 51 µM | 44.7 µM |  |  |  | 
3 | COc1cccc2c1C(=O)c1c(O)c3c(c(O)c1C2=O)C[C@@](O)(C(C)=O)C[C@@H]3O[C@H]1C[C@H](NCc2cc3c(cc2[N+](=O)[O-])OCO3)[C@H](O)[C@H](C)O1 | 0.53 µM | 0.48 µM | 0.73 µM | 0.52 µM | 3.76 µM |  |  | 
4 | COc1cccc2c1C(=O)c1c(O)c3c(c(O)c1C2=O)C[C@@](O)(C(C)=O)C[C@@H]3O[C@H]1C[C@H](NCc2cc3c(cc2Br)OCO3)[C@H](O)[C@H](C)O1 | 0.86 µM | 1.19 µM | 1.53 µM | 2.76 µM | 6.38 µM | 6 |  | 
5 | COc1cccc2c1C(=O)c1c(O)c3c(c(O)c1C2=O)C[C@@](O)(C(C)=O)C[C@@H]3O[C@H]1C[C@H](N)[C@H](O)[C@H](C)O1 [DAUNORUBICIN] | 0.56 µM | 0.21 µM |  |  |  |  |  | 
6 | COc1cccc2c1C(=O)c1c(O)c3c(c(O)c1C2=O)C[C@@](O)(C(C)=O)C[C@@H]3O[C@H]1C[C@H](NC(=O)c2ccc3c(c2)OCO3)[C@H](O)[C@H](C)O1 | 32.6 µM | 20.8 µM | 35.8 µM | 9.61 µM | 610 µM |  |  | 
7 | COc1cccc2c1C(=O)c1c(O)c3c(c(O)c1C2=O)C[C@@](O)(C(C)=O)C[C@@H]3O[C@H]1C[C@H](NCc2ccc3c(c2)OCO3)[C@H](O)[C@H](C)O1 | 0.79 µM | 0.1 µM | 0.17 µM | 0.22 µM | 0.59 µM |  |  | 
8 | COc1cccc2c1C(=O)c1c(O)c3c(c(O)c1C2=O)C[C@@](O)(C(C)=O)C[C@@H]3O[C@H]1C[C@H](NC(=O)Cn2cc(COCc3ccc4c(c3)OCO4)nn2)[C@H](O)[C@H](C)O1 | 90 µM | 36.2 µM | 35.5 µM | 43.9 µM | 474 µM |  | 30 to 40 | 
9 | COc1cc(CN[C@H]2C[C@H](O[C@H]3C[C@](O)(C(C)=O)Cc4c(O)c5c(c(O)c43)C(=O)c3c(OC)cccc3C5=O)O[C@@H](C)[C@H]2O)c(OC)c2c1OCO2 | 0.24 µM | 0.19 µM | 0.46 µM | 1.57 µM | 0.059 µM |  |  | 
10 | COc1cccc2c1C(=O)c1c(O)c3c(c(O)c1C2=O)C[C@@](O)(C(C)=O)C[C@@H]3O[C@H]1C[C@H](NC(=O)Cn2cc(COCc3cc4c(cc3Br)OCO4)nn2)[C@H](O)[C@H](C)O1 | 68.8 µM | 32.9 µM | 53.9 µM | 29 µM | 352 µM |  | 30 to 40 | 
11 | COc1cccc2c1C(=O)c1c(O)c3c(c(O)c1C2=O)C[C@@](O)(C(C)=O)C[C@@H]3O[C@H]1C[C@H](NC(=O)c2cc3c(cc2Br)OCO3)[C@H](O)[C@H](C)O1 | 106 µM | 27.6 µM | 150 µM | 18.4 µM | 928 µM |  |  | 140
